Data as given in patent US9346815B2, “5-chloro-2-difluoromethoxyphenyl pyrazolopyrimidine compounds, compositions and methods of use thereof” (Genentech, Inc., priority 2014, dated 2016).

Columns and labels:
[1] = target: isolated recombinant JAK2 kinase domain (Homo sapiens (Human), UniProt O60674); experiment: JAK2 enzyme assay (Caliper LabChip, peptide phosphorylation); type: biochemical; settings: 25 μM ATP
[2] = target: isolated recombinant JAK1 kinase domain (Homo sapiens (Human), UniProt P23458); experiment: JAK1 enzyme assay (Caliper LabChip, peptide phosphorylation); type: biochemical; settings: isolated recombinant JAK1 kinase domain, 25 μM ATP
[3] = test system: JAK1-dependent STAT6 phosphorylation downstream of IL-13 stimulation in BEAS-2B human bronchial epithelial cells; experiment: JAK1 pathway assay in BEAS-2B cells (IL-13-pSTAT6, MSD); type: cell-based; settings: read-out: IL13-pSTAT6 EC50 (uM)_BEAS-2B
Description: JAK1 Pathway Assay in Cell Lines was Carried Out as Follows:
Inhibitor potency (EC50) was determined in cell-based assays designed to measure JAK1 dependent STAT phosphorylation.
In one assay approach, TF-1 human erythroleukemia cells obtained from the American Type Culture Collection (ATCC; Manassas, Va.) were used to measure JAK1-dependent STAT6 phosphorylation downstream of IL-13 stimulation. Prior to use in the assays, TF-1 cells were starved of GM-CSF overnight in OptiMEM medium (Life Technologies, Grand Island, N.Y.) supplemented with 0.5% charcoal/dextran stripped fetal bovine serum (FBS), 0.1 mM non-essential amino acids (NEAA), and 1 mM sodium pyruvate. The assays were run in 384-well plates in serum-free OptiMEM medium using 300,000 cells per well. In a second assay approach, BEAS-2B human bronchial epithelial cells obtained from ATCC were plated at 100,000 cells per well of a 96-well plate one day prior to the experiment. The BEAS-2B assay was run in complete growth medium (bronchial epithelial basal medium plus bulletkit; Lonza; Basel, Switzerland).
Test compounds were serially diluted 1:2 in DMSO and then diluted 1:50 in medium just before use. Diluted compounds were added to the cells, for a final DMSO concentration of 0.2%, and incubated for 30 min (for the TF-1 assay) or 1 hr (for the BEAS-2B assay) at 37° C. Then, cells were stimulated with human recombinant cytokine at their respective EC90 concentrations, as previously determined for each individual lot. Cells were stimulated with IL-13 (R&D Systems, Minneapolis, Minn.) for 15 min at 37° C. The TF-1 cell reactions were stopped by the direct addition of 10× lysis buffer (Cell Signaling Technologies, Danvers, Mass.), whereas the BEAS-2B cell incubations were halted by the removal of medium and addition of 1× lysis buffer. The resultant samples were frozen in the plates at −80° C. Compound mediated inhibition of STAT6 phosphorylation was measured in the cell lysates using MesoScale Discovery (MSD) technology (Gaithersburg, Md.).

isolated recombinant JAK2 kinase domain, sequence (O60674 849-1124): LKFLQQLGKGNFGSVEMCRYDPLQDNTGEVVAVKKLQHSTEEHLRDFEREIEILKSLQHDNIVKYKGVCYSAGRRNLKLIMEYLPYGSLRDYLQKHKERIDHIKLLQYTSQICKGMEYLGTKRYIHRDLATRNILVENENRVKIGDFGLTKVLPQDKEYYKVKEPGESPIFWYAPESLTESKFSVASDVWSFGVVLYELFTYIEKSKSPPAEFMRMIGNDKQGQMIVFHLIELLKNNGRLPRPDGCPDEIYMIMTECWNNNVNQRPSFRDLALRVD
isolated recombinant JAK1 kinase domain, sequence (P23458 875-1153): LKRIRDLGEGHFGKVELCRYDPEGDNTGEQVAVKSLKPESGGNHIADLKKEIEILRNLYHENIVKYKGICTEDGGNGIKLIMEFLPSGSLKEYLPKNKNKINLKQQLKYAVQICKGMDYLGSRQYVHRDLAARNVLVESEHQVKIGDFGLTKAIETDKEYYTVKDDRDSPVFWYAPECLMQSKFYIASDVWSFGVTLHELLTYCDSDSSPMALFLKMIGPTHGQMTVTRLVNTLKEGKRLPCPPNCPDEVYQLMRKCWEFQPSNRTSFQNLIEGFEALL

| Structure (SMILES) | Ki [1] | Ki [2] | EC50 [3] |
| --- | --- | --- | --- |
| CC(C)(C)OC(=O)N1CC[C@@H](n2cc(NC(=O)c3cnn4cccnc34)c(-c3cc(Cl)ccc3OC(F)F)n2)[C@H](O)C1 (single isomer, unassigned) [Example 354] | 1.05 nM | 0.72 nM | 0.024 µM |
| CC(C)(C)OC(=O)N1CC[C@H](n2cc(NC(=O)c3cnn4cccnc34)c(-c3cc(Cl)ccc3OC(F)F)n2)[C@@H](O)C1 (single isomer, unassigned) [Example 355] | 3.72 nM | 3.32 nM | 0.0678 µM |
| CC(C)(C)OC(=O)N1CC[C@@H](O)[C@H](n2cc(NC(=O)c3cnn4cccnc34)c(-c3cc(Cl)ccc3OC(F)F)n2)C1 (single isomer, unassigned) [Example 356] | 2.37 nM | 2.64 nM | 0.0396 µM |
| CC(C)(C)OC(=O)N1CC[C@H](O)[C@@H](n2cc(NC(=O)c3cnn4cccnc34)c(-c3cc(Cl)ccc3OC(F)F)n2)C1 (single isomer, unassigned) [Example 357] | 1.06 nM | 1.22 nM | 0.0216 µM |
| N#Cc1ccc(CN2CCN(C(=O)Cn3cc(NC(=O)c4cnn5cccnc45)c(-c4cc(Cl)ccc4OC(F)F)n3)CC2)cc1 [Example 238, N-[3-[5-chloro-2-(difluoromethoxy)phenyl]-1-[2-[4-[(4-cyanophenyl)methyl]piperazin-1-yl]-2-oxo-ethyl]pyrazol-4-yl]pyrazolo[1,5-a]pyrimidine-3-carboxamide] | 0.55 nM | 0.45 nM | 0.0218 µM |
| O=C(O)CN1CCN(C(=O)Cn2cc(NC(=O)c3cnn4cccnc34)c(-c3cc(Cl)ccc3OC(F)F)n2)CC1 [Example 310, 2-[4-(2-[3-[5-chloro-2-(difluoromethoxy)phenyl]-4-[pyrazolo[1,5-a]pyrimidine-3-amido]-1H-pyrazol-1-yl]acetyl)piperazin-1-yl]acetic acid] | 0.59 nM | 0.52 nM | 8.83 µM |
| CC(c1ccccc1)N1CCN(C(=O)Cn2cc(NC(=O)c3cnn4cccnc34)c(-c3cc(Cl)ccc3OC(F)F)n2)CC1 (centres unmarked) [Example 316, N-[3-[5-chloro-2-(difluoromethoxy)phenyl]-1-[2-oxo-2-[4-(1-phenylethyl)piperazin-1-yl]ethyl]-1H-pyrazol-4-yl]pyrazolo[1,5-a]pyrimidine-3-carboxamide] | 1.04 nM | 0.48 nM | 0.142 µM |
| CC(C)CN1CCN(C(=O)Cn2cc(NC(=O)c3cnn4cccnc34)c(-c3cc(Cl)ccc3OC(F)F)n2)CC1 [Example 317, N-[3-[5-chloro-2-(difluoromethoxy)phenyl]-1-[2-[4-(2-methylpropyl)piperazin-1-yl]-2-oxoethyl]-1H-pyrazol-4-yl]pyrazolo[1,5-a]pyrimidine-3-carboxamide] | 1.16 nM | 0.64 nM | 0.0229 µM |
| CC1(CN2CCN(C(=O)Cn3cc(NC(=O)c4cnn5cccnc45)c(-c4cc(Cl)ccc4OC(F)F)n3)CC2)COC1 [Example 318, N-[3-[5-chloro-2-(difluoromethoxy)phenyl]-1-(2-[4-[(3-methyloxetan-3-yl)methyl]piperazin-1-yl]-2-oxoethyl)-1H-pyrazol-4-yl]pyrazolo[1,5-a]pyrimidine-3-carboxamide] | 1.11 nM | 0.56 nM | 0.0283 µM |
| CCCN1CCN(C(=O)Cn2cc(NC(=O)c3cnn4cccnc34)c(-c3cc(Cl)ccc3OC(F)F)n2)CC1 [Example 319, N-[3-[5-chloro-2-(difluoromethoxy)phenyl]-1-[2-oxo-2-(4-propylpiperazin-1-yl)ethyl]-1H-pyrazol-4-yl]pyrazolo[1,5-a]pyrimidine-3-carboxamide] | 0.86 nM | 0.5 nM | 0.0577 µM |
| O=C(Nc1cn(CC(=O)N2CCN(CCN3CCOCC3)CC2)nc1-c1cc(Cl)ccc1OC(F)F)c1cnn2cccnc12 [Example 321, N-[3-[5-chloro-2-(difluoromethoxy)phenyl]-1-(2-[4-[2-(morpholin-4-yl)ethyl]piperazin-1-yl]-2-oxoethyl)-1H-pyrazol-4-yl]pyrazolo[1,5-a]pyrimidine-3-carboxamide] | 0.9 nM | 0.4 nM | 0.0133 µM |
| COC(=O)CN1CCN(C(=O)Cn2cc(NC(=O)c3cnn4cccnc34)c(-c3cc(Cl)ccc3OC(F)F)n2)CC1 [Example 322, methyl 2-[4-(2-[3-[5-chloro-2-(difluoromethoxy)phenyl]-4-[pyrazolo[1,5-a]pyrimidine-3-amido]-1H-pyrazol-1-yl]acetyl)piperazin-1-yl]acetate] | 0.8 nM | 0.31 nM | 0.0411 µM |
| O=C(Nc1cn(CC(=O)N2CCNCC2)nc1-c1cc(Cl)ccc1OC(F)F)c1cnn2cccnc12 [Example 324, N-[3-[5-chloro-2-(difluoromethoxy)phenyl]-1-[2-oxo-2-(piperazin-1-yl)ethyl]-1H-pyrazol-4-yl]pyrazolo[1,5-a]pyrimidine-3-carboxamide] | 1.61 nM | 0.95 nM | 0.0566 µM |
| CN(C)C(=O)CN1CCN(C(=O)Cn2cc(NC(=O)c3cnn4cccnc34)c(-c3cc(Cl)ccc3OC(F)F)n2)CC1 [Example 325, N-[3-[5-chloro-2-(difluoromethoxy)phenyl]-1-(2-[4-[(dimethylcarbamoyl)methyl]piperazin-1-yl]-2-oxoethyl)-1H-pyrazol-4-yl]pyrazolo[1,5-a]pyrimidine-3-carboxamide] | 1.03 nM | 0.41 nM | 0.0651 µM |
| O=C(CN1CCCCC1)Cn1cc(NC(=O)c2cnn3cccnc23)c(-c2cc(Cl)ccc2OC(F)F)n1 [Example 418, N-(3-(5-chloro-2-(difluoromethoxy)phenyl)-1-(2-oxo-3-(piperidin-1-yl)propyl)-1H-pyrazol-4-yl)pyrazolo[1,5-a]pyrimidine-3-carboxamide] | 0.8 nM | – | 0.0609 µM |

More lines, main results first:

| Ki [1] | Ki [2] | Structure (SMILES) | EC50 [3] |
| --- | --- | --- | --- |
| 0.73 nM | 1.25 nM | O=C(O)CNC1CCN(CCn2cc(NC(=O)c3cnn4cccnc34)c(-c3cc(Cl)ccc3OC(F)F)n2)CC1 [Example 311, 2-[[1-(2-[3-[5-chloro-2-(difluoromethoxy)phenyl]-4-[pyrazolo[1,5-a]pyrimidine-3-amido]-1H-pyrazol-1-yl]ethyl)piperidin-4-yl]amino]acetic acid] | 2.6 µM |
| 0.32 nM | 0.4 nM | CSCCNCCn1cc(NC(=O)c2cnn3cccnc23)c(-c2cc(Cl)ccc2OC(F)F)n1 [Example 312, N-[3-[5-chloro-2-(difluoromethoxy)phenyl]-1-(2-[[2-(methylsulfanyl)ethyl]amino]ethyl)-1H-pyrazol-4-yl]pyrazolo[1,5-a]pyrimidine-3-carboxamide] | 0.0719 µM |
| 0.39 nM | 0.62 nM | O=C(Nc1cn(CCNCc2ccccn2)nc1-c1cc(Cl)ccc1OC(F)F)c1cnn2cccnc12 [Example 314, N-[3-[5-chloro-2-(difluoromethoxy)phenyl]-1-[2-[(pyridin-2-ylmethyl)amino]ethyl]-1H-pyrazol-4-yl]pyrazolo[1,5-a]pyrimidine-3-carboxamide] | 0.0995 µM |
| 0.4 nM | 0.72 nM | O=C(Nc1cn(CCNCc2ccncc2)nc1-c1cc(Cl)ccc1OC(F)F)c1cnn2cccnc12 [Example 315, N-[3-[5-chloro-2-(difluoromethoxy)phenyl]-1-[2-[(pyridin-4-ylmethyl)amino]ethyl]-1H-pyrazol-4-yl]pyrazolo[1,5-a]pyrimidine-3-carboxamide] | 0.0823 µM |
| 0.6 nM | 0.31 nM | O=C(Nc1cn(CC(=O)N2CCN(Cc3ccccc3)CC2)nc1-c1cc(Cl)ccc1OC(F)F)c1cnn2cccnc12 [Example 320, N-[1-[2-(4-benzylpiperazin-1-yl)-2-oxoethyl]-3-[5-chloro-2-(difluoromethoxy)phenyl]-1H-pyrazol-4-yl]pyrazolo[1,5-a]pyrimidine-3-carboxamide] | 0.0473 µM |
| 0.33 nM | 0.68 nM | O=C1CCC(Cn2cc(NC(=O)c3cnn4cccnc34)c(-c3cc(Cl)ccc3OC(F)F)n2)O1 (centres unmarked) [Example 323] | 0.0209 µM |
| 0.28 nM | 0.21 nM | O=C(Nc1cn(CCNCc2ccccc2O)nc1-c1cc(Cl)ccc1OC(F)F)c1cnn2cccnc12 [Example 326, N-[3-[5-chloro-2-(difluoromethoxy)phenyl]-1-(2-[[(2-hydroxyphenyl)methyl]amino]ethyl)-1H-pyrazol-4-yl]pyrazolo[1,5-a]pyrimidine-3-carboxamide] | 0.007 µM |
